Test results taken from patent US9862713B2, “Substituted bicyclic heteroaryl compounds as RXR agonists” (CONNEXIOS LIFE SCIENCES PVT. LTD., priority 2014, dated 2018).

Tests used:
astrocytes = experiment: Astrocytes treated with PMA and LPS: ROS levels and inflammation markers; assay type: cell-based; conditions: 48 h
Protocol: Furthermore, cultured astrocytes were treated with phorbol-12-myristate-13-acetate (PMA) and Lipopolysaccharides (LPS) alone or with test molecule for 48 h to measure ROS levels. To evaluate the effect on inflammation markers, astrocytes were treated with PMA and test molecule for 48 h.

[1] = system: mouse neuronal cells (N2A cells); experiment: Cholesterol-treated neuronal cells (N2A), in vitro data for Alzheimer's disease; assay type: cell-based; conditions: 320 uM cholesterol
Protocol: In order to study the impact of Compound 40 on Alzheimer's Disease, cultured mouse neuronal cells (N2A cells) were treated with 320 uM cholesterol alone or with test molecule for 24 h. Cholesterol was removed and treatment is continued for 24 h. Cholesterol content in the cells was measured by biochemical methods, normalized to total protein. For gene expression studies, cells were treated with 320 uM cholesterol alone or with test molecule for 48 h. RNA was made and later converted to cDNA and the gene expression was measured. […] These cellular events lead to reduced plaque formation and improvement in the health of neuronal cells.

MIA PaCa-2 cells [2] = experiment: Cell death (DNA fragmentation) in MIA PaCa-2 cells; assay type: cell-based
Protocol: Caspase-3 activity was measured using its ability to cleave its substrate (Ac-DEVD-R110). Increased Caspase-3 activity would lead to higher release of fluorescent R110 which was measured at 485 nm excitation and 530 nm emission. Activity of caspase-3 (as nano-moles of R110 released) was normalized to total cellular protein. […] Cell death was measured by increased levels of DNA fragments as per manufacturer's protocol (Roche) and was normalized to total cellular DNA. Data are represented as % of control.

MIA PaCa-2 cells [3] = experiment: MIA PaCa-2 cell growth (cell count); assay type: cell-based; conditions: 0.1 uM and higher (up to 10.0 uM); day 2, 4 and 6
Protocol: Cancer is characterized by uncontrolled cell growth. Any agent which can reduce the cellular growth will have high therapeutic potentials. […] MIA PaCa-2 cells (ATCC) were seeded in a 6-well plate (20,000 cells per well) in DMEM containing 25 mM glucose, 10% FBS, 2.5% horse serum in presence or absence of different concentrations of compound-40 as mentioned. Cells were harvested on day 2, day 4 and day 6, and cell numbers were measured. MIA PaCa-2 cells were grown with or without different concentrations of compound-40 (0.0, 0.1, 0.3, 1.0, 3.0 and 10.0 uM) and cell growth was measured by cell count at different time points (day 2, 4 and 6).

ob/ob mice = experiment: Effect of RXR agonist on ob/ob mice; assay type: in vivo; conditions: 3, 10 and 30 mg/kg, BID, po; 4 weeks
Protocol: The male ob/ob and lean mice were procured from Harlon laboratories, acclimatized for a week, were fed a standard laboratory diet. The lean control and the ob/ob mice were 16 weeks old at the start of the study and were randomized to either vehicle or drug (Compound 40, 3, 10 and 30 mg/kg, BID, po) treatment groups by body weight, fed glucose and glucose AUC during an oral glucose tolerance test. The treatment was continued for 4 weeks. Fed glucose and fast triglycerides (tail snip) were monitored weekly. At the end of week 4 of the treatment, Animals were sacrificed […] terminal measurement of fasting glycerol, free fatty acid, cholesterol, LDL levels.

Male Wistar rats = experiment: Isoprenaline induced cardiac hypertrophy in rats; assay type: in vivo; conditions: 10 mg/kg, p.o., q.d., 11 weeks
Protocol: Male Wistar rats of fourteen weeks age were housed under controlled temperature 22±3° C., relative humidity 50-70%, 12 hour light and 12 hour dark cycle with artificial fluorescent tubes. Animals were acclimatized for seven days. On eight day animals were randomized based on their body weights and allotted into nine animals/group. Different groups into which animals allotted were G1: Vehicle control, G2: Isoprenaline control (5 mg/kg, s.c. twice a week) and G3: Isoprenaline (5 mg/kg, s.c. twice a week)+Compound 40 (10 mg/kg, p.o., q.d.). Treatment with Compound 40 (10 mpk) for G3 group was started one week prior to isoprenaline administration and both the treatments were continued for eleven weeks. The animals were monitored for daily feed consumption and weekly body weight throughout the study. At the end of treatment period (Week 11) five animals from each group were subjected to Cardiovascular hemodynamic assessment by Millar catheter using MPVS Ultra control interface connected to AD power lab, AD instruments. Different parameters measured were heart rate, stroke work, stroke volume, cardiac output, left ventricular systolic pressure, left ventricular diastolic pressure, left ventricular diastolic volume Immediately after hemodynamic estimation terminal blood from all the animals were collected followed by the collection of hearts. All the separated serum samples were used for estimation of several cardiac markers like ANP, BNP, CRP, LDH, CKN, CKMB and SGOT. Collected hearts were examined for histopathological changes and gene expression studies. All the numerical output was expressed as Mean±SEM, one way ANOVA followed by Dunnets' test using Graph pad prism software.

Structure (SMILES): CC1(C)CCC(C)(C)c2sc(N(CC3CC3)c3ccc(C(=O)O)cn3)nc21 [Compound 40, 6-[(Cyclopropylmethyl) (4,4,7,7-tetramethyl-4,5,6,7-tetrahydro-1,3-benzothiazol-2-yl)amino]pyridine-3-carboxylic acid]
- oxidative stress (ROS levels) (astrocytes; PMA and LPS): reduce both oxidative stress
- inflammation (IL6 secretion and expression, expression of IL1b, COX2 and MCP1) (astrocytes; PMA): reduce inflammation
- apoptosis (Caspase activity) [1]: decreased apoptosis
- cholesterol accumulation (cholesterol content in the cells) [1]: reduced cholesterol accumulation
- oxidative stress (ROS levels) [1]: reduced oxidative stress
- cholesterol efflux (ABCA1 and ABCG1 expression) ([1]; 48 h): increased the cholesterol efflux
- cell death (DNA fragmentation) (MIA PaCa-2 cells [2]): increased cell death
- cell growth (cell count) (MIA PaCa-2 cells [3]): significant reduction in cell growth
- LDL-c (ob/ob mice): decreasing LDL-c
- prandial hyperglycemia (fed glucose) (ob/ob mice): both an early onset and sustained control of prandial hyperglycemia
- total cholesterol (ob/ob mice): significantly decreased total cholesterol
- absolute heart weight (Male Wistar rats; isoprenaline 5 mg/kg, s.c. twice a week): substantial reduction
- Stroke volume (SV) (Male Wistar rats; isoprenaline): significant improvement
- Stroke work (SW) (Male Wistar rats; isoprenaline): significant improvement
- cardiac output (Male Wistar rats; isoprenaline): improved
- ejection fraction (Male Wistar rats; isoprenaline): improved
- heart rate (Male Wistar rats; isoprenaline): improved
- thickness of the septum (Male Wistar rats; isoprenaline): significant reduction
- thickness of the ventricular wall (Male Wistar rats; isoprenaline): significant reduction
- ventricular refilling (Male Wistar rats; isoprenaline): improvement in ventricular refilling
